Data from US11534457B2, “Use of dextran sulfate” (priority 2017, dated 2022).

Legend:
[1] = test system: BF4T system [bronchial epithelial cells and HDFn+(TNFα and IL-4)]; assay: BioMAP BF4T system; type: cell-based, Human
Description: In this study LMW-DS was characterized by profiling in the BioMAP® Diversity PLUS panel. The BioMAP® panel consists of human primary cell-based systems designed to model different aspects of the human body in an in vitro format. The 12 systems in the BioMAP® Diversity PLUS panel (Table 32) allow test agent characterization in an unbiased way across a broad set of systems modeling various human disease states. The BioMA®P systems are constructed with one or more primary cell types from healthy human donors, with stimuli, such as cytokines or growth factors, added to capture relevant signaling networks that naturally occur in human tissue or pathological conditions. […]
Systems are derived from either single cell types or co-culture systems. […] Test agents prepared in either DMSO (small molecules; final concentration 0.1%) or PBS (biologics) are added at the indicated concentrations 1-hr before stimulation, and remain in culture for 24-hrs or as otherwise indicated (48-hrs, MyoF system; 72-hrs, BT system (soluble readouts); 168-hrs, BT system (secreted IgG)). […] Soluble factors from supernatants are quantified using either HTRF® detection, bead-based multiplex immunoassay or capture ELISA. Overt adverse effects of test agents on cell proliferation and viability (cytotoxicity) are detected by sulforhodamine B (SRB) staining, for adherent cells, and alamarBlue® reduction for cells in suspension. […]

human Schwann cells = assay: PI staining (DNA content, cell cycle, cell numbers, apoptotic fraction), Acumen cytometry; type: cell-based; conditions: 0.01 and 0.1 mg/ml
Description: The study aims were to evaluate the effect of LMW-DS on cell survival and expression of differentiation proteins in three cell types, cerebral cortical neurons, motor neurons and Schwann cells, using two concentrations 0.01 and 0.1 mg/ml of LMW-DS.
Neurons were cultured as 40,000 cells per well and Schwann cells 3,000 cells per. Cells were treated after 24 hours. The number of cells per well depended on the growth phenotype, proliferative capacity, etc.
Schwann cells growth medium was prepared by adding 10% of fetal bovine serum (FBS, PAA) to high-glucose DMEM and pre-warmed to 37° C. Cells were thawed in a 37° C. water bath for no longer than 2 min. […] Pellet was resuspended in 5 ml of medium and cells were counted with the Cellometer. […]
LMW-DS was prepared in the culture media of choice for each cell line and added to the respective wells in the doses 0.01 and 0.1 mg/ml. For cell survival assays cells were analyzed after 24 and 48 hours in eight identical wells/dose/time point. Differentiation and protein expression assay was analyzed after 48 hours, also in octuplicates. […]
The Acumen cytometer allows the direct cytometric analysis of attached cells without prior detachment. […] The protein content of the cells can also be directly measured and expressed as either ‘total protein content’ or ‘mean protein content’.

Substance: low molecular weight dextran sulfate [LMW-DS]
- Increased biomarker activity ([1]; BF4T system): Eot3
- Eotaxin-3 ([1]; lower concentrations only): Modestly increased
- fraction of apoptotic cells (human Schwann cells): reduced
- number of cells in the G2/M phase (PI content) (human Schwann cells): appeared to increase the number of cells in the G2/M phase
